Common to all, as to type: biochemical
One experiment addresses T1, human 17β-HSD 2 (Homo sapiens, UniProt P37059).
T1 construct: made in house; host or cells: E.coli BL21 DE3 Codon Plus RP
T1 sequence (P37059 1-387): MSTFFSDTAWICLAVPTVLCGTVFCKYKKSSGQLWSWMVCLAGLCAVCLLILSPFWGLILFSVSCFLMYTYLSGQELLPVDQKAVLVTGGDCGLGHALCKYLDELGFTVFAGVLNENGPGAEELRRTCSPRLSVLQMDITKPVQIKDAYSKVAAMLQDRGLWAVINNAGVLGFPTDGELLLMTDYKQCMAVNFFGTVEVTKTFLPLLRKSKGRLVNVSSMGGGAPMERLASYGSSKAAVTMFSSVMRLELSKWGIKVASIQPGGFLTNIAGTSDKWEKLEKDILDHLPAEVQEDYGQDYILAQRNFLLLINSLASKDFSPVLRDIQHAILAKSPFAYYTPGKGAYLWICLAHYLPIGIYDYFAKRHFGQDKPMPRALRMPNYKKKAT
The experiment can be described thus: In vitro enzymatic activity, recombinant human 17β-HSD 2 (estradiol oxidation). Particulars: 2 µM compound, 21 nM 3H-estradiol, NAD+, pH 7.7, read-out: Observed % inhibition. The source says: (§1) Full length cDNAs of several 17β-HSDs type 1 originating from different species were cloned either into the pQE30 vector (human 17β-HSD 1, coding for acc. no. NP_000404) for expression as His-Tag protein or into a modified pGex-2T vector [63] (mouse 17β-HSD 1, acc. no. NP_034605; rat 17β-HSD 1, acc. no. NP_036983; marmoset 17β-HSD 1, acc. no. AAG01115; porcine 17β-HSD 1, acc. no. NP_001121944) for expression as GST-fusion proteins. The marmoset 17β-HSD 1 enzyme sequence was updated by the missing N-terminal part (AF272013) and the new porcine sequence was submitted to GenBank (NP_001121944). Human 17β-HSDs 2, 4, 5 (AKR1C3, the latter kindly provided by Dr. T. Penning) and 7 were all cloned into the modified pGEX-2T vector. For 17β-HSD 4 only the SDR-domain converting the steroids was subcloned. Plasmids were transformed into E.coli BL21 DE3 Codon Plus RP (Stratagene) and enzyme expression was induced by 0.5 mM IPTG. After 4h incubation at 37°C with continuous shaking bacteria were pelleted by centrifugation at 10.000×g. Pellets were stored until use at −20°C.
(§2) The bacteria containing recombinant enzymes were resuspended in PBS and enzymatic assays were performed in 100 mM sodium phosphate buffer at pH 6.6 for the reductive reaction and at pH 7.7 for the oxidative reaction. […] All substrates were purchased from NEN/Perkin Elmer. The cofactors NADPH (Sigma; for reductive reactions) and NAD^+ (Serva, for oxidative reactions) were used at final concentrations of 0.5 mg/ml. […] The incubation at 37°C was stopped with 0.21 M ascorbic acid in methanol∶acetic acid 99∶1 (v∶v) after the time needed to convert approximately 30% of the substrate in a control assay with 1% DMSO, without inhibitor candidates. […] The solvent used was acetonitrile∶water (43∶57, v∶v) at a flow rate of 1 ml/min. Radioactivity was detected by online-scintillation counting (Berthold LB506D) after mixing with ReadyFlowIII (Beckman). Conversion was calculated from integration of substrate and product peaks. […] All assays were run in duplicates of two independent experiments and mean values are reported. The IC50 values were determined by the One Ligand Binding model of SigmaPlot kinetics module.

The target of another experiment is T2, human 17β-HSD 4 (Homo sapiens, UniProt P51659).
T2 construct: For 17β-HSD 4 only the SDR-domain converting the steroids was subcloned; made in house; host or cells: E.coli BL21 DE3 Codon Plus RP
T2 sequence (P51659 1-305 limits assumed): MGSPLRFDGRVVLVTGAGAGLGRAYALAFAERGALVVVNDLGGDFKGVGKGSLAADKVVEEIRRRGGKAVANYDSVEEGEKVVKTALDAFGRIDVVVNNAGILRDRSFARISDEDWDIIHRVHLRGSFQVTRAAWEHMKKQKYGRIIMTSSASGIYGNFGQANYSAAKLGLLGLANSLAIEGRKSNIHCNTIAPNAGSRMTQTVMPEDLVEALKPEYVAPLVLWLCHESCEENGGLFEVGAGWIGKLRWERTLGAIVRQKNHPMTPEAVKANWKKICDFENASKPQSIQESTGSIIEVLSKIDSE
The experiment is described as follows: In vitro enzymatic activity, recombinant human 17β-HSD 4 SDR-domain (estradiol oxidation). Particulars: 2 µM compound, 21 nM 3H-estradiol, NAD+, pH 7.7.
Text: as §1, §2

The target of the next experiment is T3, rat 17β-HSD 1 (Rattus norvegicus, UniProt P51657).
T3 construct: Full length cDNAs of several 17β-HSDs type 1 originating from different species were cloned; made in house; host or cells: E.coli BL21 DE3 Codon Plus RP
T3 sequence (P51657 1-344): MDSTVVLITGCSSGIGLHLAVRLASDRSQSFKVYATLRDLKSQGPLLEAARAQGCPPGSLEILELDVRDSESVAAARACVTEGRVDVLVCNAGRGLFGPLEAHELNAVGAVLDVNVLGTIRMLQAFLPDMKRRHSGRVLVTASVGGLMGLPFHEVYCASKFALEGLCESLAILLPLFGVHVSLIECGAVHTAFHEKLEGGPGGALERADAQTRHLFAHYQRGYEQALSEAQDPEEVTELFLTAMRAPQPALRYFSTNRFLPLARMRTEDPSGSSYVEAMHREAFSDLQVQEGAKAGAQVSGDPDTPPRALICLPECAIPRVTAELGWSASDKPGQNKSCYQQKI
The experiment can be described thus: In vitro enzymatic activity, recombinant rat 17β-HSD 1. Particulars: 2 µM compound, 15 nM 3H-estrone, read-out: Observed % inhibition.
Text: as §1, §2

In another experiment the target is T4, mouse 17β-HSD 1 (Mus musculus, UniProt P51656).
T4 construct: Full length cDNAs of several 17β-HSDs type 1 originating from different species were cloned; made in house; host or cells: E.coli BL21 DE3 Codon Plus RP
T4 sequence (P51656 1-344): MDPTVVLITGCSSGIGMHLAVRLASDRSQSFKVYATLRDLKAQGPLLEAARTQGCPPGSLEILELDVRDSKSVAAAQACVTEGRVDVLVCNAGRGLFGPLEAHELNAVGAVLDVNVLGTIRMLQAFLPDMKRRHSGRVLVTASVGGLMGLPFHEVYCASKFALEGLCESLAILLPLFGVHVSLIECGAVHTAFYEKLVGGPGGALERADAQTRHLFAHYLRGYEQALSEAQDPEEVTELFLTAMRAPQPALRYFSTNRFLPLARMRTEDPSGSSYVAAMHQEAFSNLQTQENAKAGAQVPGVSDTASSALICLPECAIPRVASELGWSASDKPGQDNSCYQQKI
The experiment is described as follows: In vitro enzymatic activity, recombinant mouse 17β-HSD 1. Conditions: 2 µM compound, 15 nM 3H-estrone, read-out: Observed % inhibition.
Text: as §1, §2

In general, inhibition refers to the change of the read-out against control, counted positive when it falls. Turning to `C[C@]12CC[C@@H]3c4ccc(O)cc4CC[C@H]3[C@@H]1[C@@H](CNC(=O)c1ccc(F)cc1)CC2=O` [Compound 1], the inhibition at 2 µM on human 17β-HSD 2 was -4.3%; on rat 17β-HSD 1, 47.1%; at mouse 17β-HSD 1, 27%. In addition, the Observed % inhibition on human 17β-HSD 4 is 7.2%.
The corresponding values for `C[C@]12CC[C@@H]3c4ccc(O)cc4CC[C@H]3[C@@H]1[C@@H](CCCC(=O)N1CCOCC1)CC2=O` [Compound 2] are 16.7%, 40.3%, -1.5% and 0.1%.
The corresponding values for `COc1ccc(-c2cn(CCC[C@H]3CC(=O)[C@@]4(C)CC[C@@H]5c6ccc(O)cc6CC[C@H]5[C@H]34)nn2)cc1` [Compound 4] are -0.3%, 19.4%, 18.5% and 5.5%.
Take `Cc1cnc(NC(=O)CC[C@@H]2CC(=O)[C@@]3(C)CC[C@@H]4c5ccc(O)cc5CC[C@H]4[C@H]23)s1` [Compound 3]: the results for the inhibition at 2 µM on human 17β-HSD 2, at rat 17β-HSD 1 and at mouse 17β-HSD 1 were 18.6%, 5.3% and 27%, respectively. The Observed % inhibition at human 17β-HSD 4 was found to be 2.1%.
The corresponding values for `C[C@]12CC[C@@H]3c4ccc(O)cc4CC[C@H]3[C@@H]1C[C@H](CC(=O)NCc1cccnc1)C2=O` [Compound 5, reference compound] are -3.2%, -2.4%, 3.2% and 5.6%.

These data come from paper PMC2882332, “Species Used for Drug Testing Reveal Different Inhibition Susceptibility for 17beta-Hydroxysteroid Dehydrogenase Type 1” (PLoS ONE, 2010).
